Data as given in patent US11254668B2, “Pyrazolo[1,5-A]pyrazin-4-yl and related derivatives” (Pfizer Inc., priority 2017, dated 2022).
Read-outs that look alike come from different tables or passages of the source.

Tests used:
Format in all cases: biochemical
JAK3 = JAK3 (Homo sapiens (Human), UniProt P52333); test: JAK Caliper Enzyme Assay at 1 mM ATP, JAK3
How it was run: (§1)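 IC50 (nM) derived from percent conversion of fluorescently labelled peptide, measured by Caliper LabChip mobility-shift separation after EDTA stop. Each JAK family kinase domain (human, recombinant) run at 1 mM ATP and room temperature, conditions set to 20-30% product; DMSO wells define uninhibited baseline.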

TYK2 = TYK2 (Homo sapiens (Human), UniProt P29597); test: JAK Caliper Enzyme Assay at 1 mM ATP, TYK2
Chain of TYK2 (P29597 897-1176): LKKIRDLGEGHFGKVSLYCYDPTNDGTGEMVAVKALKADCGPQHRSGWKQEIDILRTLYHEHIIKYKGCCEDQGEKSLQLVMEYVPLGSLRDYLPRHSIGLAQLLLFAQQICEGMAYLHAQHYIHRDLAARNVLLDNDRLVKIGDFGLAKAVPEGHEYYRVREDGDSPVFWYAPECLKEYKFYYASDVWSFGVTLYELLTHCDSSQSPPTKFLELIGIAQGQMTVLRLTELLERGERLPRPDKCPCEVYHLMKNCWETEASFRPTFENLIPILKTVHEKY
How it was run: (§2)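 First, compound was incubated at room temperature with recombinant human kinase domain, a synthetic peptide and 1 mM ATP until 20–30% of peptide was phosphorylated. Next, EDTA stopped the reaction. Finally, electrophoretic separation quantified product, and percent effect relative to controls was plotted against concentration.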

JAK1 = JAK1 (Homo sapiens (Human), UniProt P23458); test: JAK Caliper Enzyme Assay at 1 mM ATP, JAK1
Chain of JAK1 (P23458 875-1153): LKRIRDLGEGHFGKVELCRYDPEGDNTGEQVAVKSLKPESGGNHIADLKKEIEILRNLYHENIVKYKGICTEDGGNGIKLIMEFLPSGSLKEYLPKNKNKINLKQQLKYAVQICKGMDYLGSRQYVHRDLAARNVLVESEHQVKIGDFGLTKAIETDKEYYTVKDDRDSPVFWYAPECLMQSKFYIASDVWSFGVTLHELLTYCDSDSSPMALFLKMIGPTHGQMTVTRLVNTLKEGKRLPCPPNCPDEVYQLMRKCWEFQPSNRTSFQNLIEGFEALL
How it was run: as §1

JAK2 = JAK2 (Homo sapiens (Human), UniProt O60674); test: JAK Caliper Enzyme Assay at 1 mM ATP, JAK2
Chain of JAK2 (O60674 849-1124): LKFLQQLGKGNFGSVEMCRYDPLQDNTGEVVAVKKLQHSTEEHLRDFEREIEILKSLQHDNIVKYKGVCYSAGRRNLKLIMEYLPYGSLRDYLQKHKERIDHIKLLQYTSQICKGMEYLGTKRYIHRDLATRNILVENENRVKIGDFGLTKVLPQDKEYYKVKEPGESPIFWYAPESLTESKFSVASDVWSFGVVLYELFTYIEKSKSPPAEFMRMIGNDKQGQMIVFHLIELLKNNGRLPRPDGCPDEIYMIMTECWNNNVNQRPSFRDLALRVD
How it was run: as §2

Chain of JAK3 (P52333 822-1111): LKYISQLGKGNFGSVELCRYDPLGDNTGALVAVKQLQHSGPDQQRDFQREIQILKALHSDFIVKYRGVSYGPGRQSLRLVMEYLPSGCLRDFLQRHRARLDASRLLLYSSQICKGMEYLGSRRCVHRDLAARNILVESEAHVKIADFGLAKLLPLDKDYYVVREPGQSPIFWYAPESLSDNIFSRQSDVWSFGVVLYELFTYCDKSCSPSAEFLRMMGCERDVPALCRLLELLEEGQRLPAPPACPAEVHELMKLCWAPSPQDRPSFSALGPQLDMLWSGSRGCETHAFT

IC50 (JAK3) [nM] | IC50 (TYK2) [nM] | IC50 (JAK1) [nM] | IC50 (JAK2) [nM] | IC50 (JAK3; JAK Caliper enzyme assay) [nM] | IC50 (TYK2; JAK Caliper enzyme assay) [nM] | IC50 (JAK1; JAK Caliper enzyme assay) [nM] | IC50 (JAK2; JAK Caliper enzyme assay) [nM] | SMILES
> 10000 | 96 | 3720 | 1120 | – | – | – | – | N#CC[C@]1(n2ccc(-c3nc(-c4cnnc(N)c4)cc4ncccc34)n2)C[C@H](C#N)C1 [Example 239, trans-3-{3-[7-(6-aminopyridazin-4-yl)-1,6-naphthyridin-5-yl]-1H-pyrazol-1-yl}-3-(cyanomethyl)cyclobutanecarbonitrile]
– | – | – | – | > 10000 | 194 | 9390 | 811 | N#CC[C@]1(n2ncc(-c3cc(-c4cc5c(cn4)CCN5)cc4ncccc34)n2)C[C@@H](C#N)C1 [Example 380, cis-3-(cyanomethyl)-3-{4-[7-(2,3-dihydro-1H-pyrrolo[3,2-c]pyridin-6-yl)quinolin-5-yl]-2H-1,2,3-triazol-2-yl}cyclobutanecarbonitrile]
9120 | 22 | 619 | 70 | – | – | – | – | CS(=O)(=O)N1CC(CC#N)(n2ccc(-c3nc(-c4cnn(CC5COC5)c4)cc4ncccc34)n2)C1 [Example 132, [1-(methylsulfonyl)-3-(3-{7-[1-(oxetan-3-ylmethyl)-1H-pyrazol-4-yl]-1,6-naphthyridin-5-yl}-1H-pyrazol-1-yl)azetidin-3-yl]acetonitrile]
> 10000 | 15 | 292 | 73 | – | – | – | – | N#CCC1(n2ccc(-c3nc(-c4cc(CO)[nH]n4)cc4ncccc34)n2)CC(C#N)C1 (stereo not drawn) [Example 48, trans-3-(cyanomethyl)-3-(3-{7-[5-(hydroxymethyl)-1H-pyrazol-3-yl]-1,6-naphthyridin-5-yl}-1H-pyrazol-1-yl)cyclobutanecarbonitrile]
– | – | – | – | 3400 | 11 | 169 | 24 | Cn1cc(-c2cc3nccnc3c(-c3cnn(C4(CC#N)CN(CC(F)(F)F)C4)c3)n2)cn1 [Example 479, [3-{4-[7-(1-methyl-1H-pyrazol-4-yl)pyrido[3,4-b]pyrazin-5-yl]-1H-pyrazol-1-yl}-1-(2,2,2-trifluoroethyl)azetidin-3-yl]acetonitrile]
– | – | – | – | > 10000 | 1420 | > 10000 | > 10000 | N#CCC1(n2ncc(-c3cc(-c4cccc5c4NC(=O)C5)cc4ncccc34)n2)CC(C#N)C1 (stereo not drawn) [Example 450, trans-3-(cyanomethyl)-3-{4-[7-(2-oxo-2,3-dihydro-1H-indol-7-yl)quinolin-5-yl]-2H-1,2,3-triazol-2-yl}cyclobutanecarbonitrile]
5060 | 7 | 121 | 46 | – | – | – | – | CS(=O)(=O)N1CC(CC#N)(n2ccc(-c3nc(-c4c[nH]nc4N)cc4ncccc34)n2)C1 [Example 93, [3-{3-[7-(3-amino-1H-pyrazol-4-yl)-1,6-naphthyridin-5-yl]-1H-pyrazol-1-yl}-1-(methylsulfonyl)azetidin-3-yl]acetonitrile]
3190 | 8 | 382 | 21 | – | – | – | – | Cn1cc(-c2cc3ncccc3c(-c3ccn(C4(CC#N)CN(S(C)(=O)=O)C4)n3)n2)c(N)n1 [Example 138, [3-{3-[7-(3-amino-1-methyl-1H-pyrazol-4-yl)-1,6-naphthyridin-5-yl]-1H-pyrazol-1-yl}-1-(methylsulfonyl)azetidin-3-yl]acetonitrile]
> 10000 | 592 | 8820 | 6590 | – | – | – | – | CS(=O)(=O)N1CC(CC#N)(n2ccc(-c3nc(-c4cnn5cccnc45)cc4ncccc34)n2)C1 [Example 168, [1-(methylsulfonyl)-3-{3-[7-(pyrazolo[1,5-a]pyrimidin-3-yl)-1,6-naphthyridin-5-yl]-1H-pyrazol-1-yl}azetidin-3-yl]acetonitrile]
– | – | – | – | > 10000 | 2400 | > 10000 | > 10000 | N#CC[C@]1(n2ncc(-c3cc(-c4cnc(N)cn4)cc4ncccc34)n2)C[C@H](C#N)C1 [Example 399, trans-3-{4-[7-(5-aminopyrazin-2-yl)quinolin-5-yl]-2H-1,2,3-triazol-2-yl}-3-(cyanomethyl)cyclobutanecarbonitrile]
7140 | 15 | 35 | 39 | – | – | – | – | N#CCC1(n2cc(-c3nc(-c4cn[nH]c4)cc4ncccc34)cn2)CN(CC(F)(F)F)C1 [Example 1, [3-{4-[7-(1H-pyrazol-4-yl)-1,6-naphthyridin-5-yl]-1H-pyrazol-1-yl}-1-(2,2,2-trifluoroethyl)azetidin-3-yl]acetonitrile]
> 10000 | 101 | 3090 | 2170 | – | – | – | – | CO[C@H]1C[C@](CC#N)(n2ccc(-c3nc(-c4cn[nH]c4)cc4ncccc34)n2)C1 [Example 81, (trans-3-methoxy-1-{3-[7-(1H-pyrazol-4-yl)-1,6-naphthyridin-5-yl]-1H-pyrazol-1-yl}cyclobutyl)acetonitrile]
> 10000 | 89 | 1320 | 770 | – | – | – | – | Cc1n[nH]cc1-c1cc2ncccc2c(-c2ccn([C@]3(CC#N)C[C@@H](C#N)C3)n2)n1 [Example 89, trans-3-(cyanomethyl)-3-{3-[7-(3-methyl-1H-pyrazol-4-yl)-1,6-naphthyridin-5-yl]-1H-pyrazol-1-yl}cyclobutanecarbonitrile]
> 10000 | 32 | 269 | 126 | – | – | – | – | Cc1n[nH]cc1-c1cc2ncccc2c(-c2ccn([C@]3(CC#N)C[C@H](C#N)C3)n2)n1 [Example 90, cis-3-(cyanomethyl)-3-{3-[7-(3-methyl-1H-pyrazol-4-yl)-1,6-naphthyridin-5-yl]-1H-pyrazol-1-yl}cyclobutanecarbonitrile]
2160 | 19 | 53 | 30 | – | – | – | – | Cn1ncc(-c2cc3ncccc3c(-c3ccn([C@]4(CC#N)C[C@H](C#N)C4)n3)n2)c1N [Example 142, cis-3-{3-[7-(5-amino-1-methyl-1H-pyrazol-4-yl)-1,6-naphthyridin-5-yl]-1H-pyrazol-1-yl}-3-(cyanomethyl)cyclobutanecarbonitrile]
– | – | – | – | > 10000 | 39 | 2340 | 207 | N#CC[C@]1(n2ncc(-c3cc(-c4cc[nH]c(=O)c4)cc4ncccc34)n2)C[C@@H](C#N)C1 [Example 410, cis-3-(cyanomethyl)-3-{4-[7-(2-oxo-1,2-dihydropyridin-4-yl)quinolin-5-yl]-2H-1,2,3-triazol-2-yl}cyclobutanecarbonitrile]
– | – | – | – | > 10000 | 368 | > 10000 | 6500 | N#CC[C@]1(n2ncc(-c3cc(-c4cccc5c4NC(=O)C5)cc4ncccc34)n2)C[C@@H](C#N)C1 [Example 449, cis-3-(cyanomethyl)-3-{4-[7-(2-oxo-2,3-dihydro-1H-indol-7-yl)quinolin-5-yl]-2H-1,2,3-triazol-2-yl}cyclobutanecarbonitrile]
> 10000 | 138 | 5400 | 895 | – | – | – | – | CCCS(=O)(=O)N1CC(CC#N)(n2ccc(-c3nc(-c4cnn(C)c4)cc4ncccc34)n2)C1 [Example 106, [3-{3-[7-(1-methyl-1H-pyrazol-4-yl)-1,6-naphthyridin-5-yl]-1H-pyrazol-1-yl}-1-(propylsulfonyl)azetidin-3-yl]acetonitrile]
– | – | – | – | > 10000 | 1100 | > 10000 | > 10000 | CS(=O)(=O)N1CC(CC#N)(n2ncc(-c3cc(-c4ccc(F)cc4O)cc4ncccc34)n2)C1 [Example 441, [3-{4-[7-(4-fluoro-2-hydroxyphenyl)quinolin-5-yl]-2H-1,2,3-triazol-2-yl}-1-(methylsulfonyl)azetidin-3-yl]acetonitrile]
> 10000 | 6990 | > 10000 | > 10000 | – | – | – | – | CCN1CC(CC#N)(n2ccc(-c3nc(N4CCOCC4)cc4ncccc34)n2)C1 [Example 264, (1-ethyl-3-{3-[7-(morpholin-4-yl)-1,6-naphthyridin-5-yl]-1H-pyrazol-1-yl}azetidin-3-yl)acetonitrile]
– | – | – | – | > 10000 | 322 | 7190 | 6810 | CS(=O)(=O)N1CC(CC#N)(n2cnc(-c3cc(-c4ccn[nH]4)cc4ncccc34)n2)C1 [Example 452, [1-(methylsulfonyl)-3-{3-[7-(1H-pyrazol-5-yl)quinolin-5-yl]-1H-1,2,4-triazol-1-yl}azetidin-3-yl]acetonitrile]
– | – | – | – | > 10000 | 257 | > 10000 | 1690 | N#CC[C@]1(n2ncc(-c3cc(-c4cc[nH]c(=O)c4)cc4ncccc34)n2)C[C@H](C#N)C1 [Example 411, trans-3-(cyanomethyl)-3-{4-[7-(2-oxo-1,2-dihydropyridin-4-yl)quinolin-5-yl]-2H-1,2,3-triazol-2-yl}cyclobutanecarbonitrile]
> 10000 | 55 | 3510 | 281 | – | – | – | – | CS(=O)(=O)c1ccc(-c2cc(-c3cnn([C@]4(CC#N)C[C@@H](C#N)C4)n3)c3cccnc3c2)nc1 [Example 369, trans-3-(cyanomethyl)-3-(4-{7-[5-(methylsulfonyl)pyridin-2-yl]quinolin-5-yl}-2H-1,2,3-triazol-2-yl)cyclobutanecarbonitrile]
7930 | 109 | 3720 | 205 | – | – | – | – | Cn1nc(-c2cc3ncccc3c(-c3ccn([C@]4(CC#N)C[C@@H](C#N)C4)n3)n2)cc1CN [Example 71, trans-3-(3-{7-[5-(aminomethyl)-1-methyl-1H-pyrazol-3-yl]-1,6-naphthyridin-5-yl}-1H-pyrazol-1-yl)-3-(cyanomethyl)cyclobutanecarbonitrile]
